According to ChEMBL document CHEMBL1201862, “PubChem BioAssay data set” (2004):
The source made the active and inactive calls.

Legend:
[1] = target: Peroxisome proliferator-activated receptor gamma/Nuclear receptor coactivator 2 (Homo sapiens, UniProt P37231); assay type: functional;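 further: agonist potency for raising coactivator recruitment to the receptor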
[2] = target: Peroxisome proliferator-activated receptor gamma/Nuclear receptor coactivator 3 (Homo sapiens, UniProt P37231); assay type: functional;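 further: agonist potency for raising coactivator recruitment to the receptor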
[3] = target: Peroxisome proliferator-activated receptor gamma/Nuclear receptor coactivator 1 (Homo sapiens, UniProt P37231); assay type: functional;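 further: agonist potency as compounds enhance coactivator SRC-1 recruitment to PPARgamma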
[4] = target: Major prion protein (Homo sapiens, UniProt P04156); assay type: functional, cell-based
[5] = cells
[6] = target: Beta-galactosidase (Escherichia coli, UniProt Q8VNN2); assay: Dose response counterscreen for EBI2 assay utilizing the enzyme, b-galactosidase.; assay type: functional
[7] = target: Voltage-dependent T-type calcium channel subunit alpha-1H (Homo sapiens, UniProt O95180); assay type: functional;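 further: channel activity triggered by adding a high calcium stimulation buffer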
[8] = Trypanosoma cruzi growth suppression in host cells – NIH3T3 host cells, beta-gal luminescence, confirmation (AID 2044); assay type: functional, cell-based;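 further: intracellular parasites grown in NIH/3T3 mouse fibroblasts as host cells; luminescent beta-galactosidase reporter signal from transgenic T. cruzi replicating inside host cells; inhibitors lower the luminescence signal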
[9] = NIH3T3 cell viability loss – ATP luminescence, mouse fibroblasts, counter-screen, dose response (AID 2010); assay type: functional, cell-based;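 further: cells exposed to compound for about 90 hours before reading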
[10] = cells; assay type: functional, cell-based
[11] = cells; assay type: functional, cell-based; remark: listed apart in the source
[12] = A cytotoxicity screen of small molecule inhibitors of the PhoP region in Salmonella typhi identified in the primary screen. [Related pubchem assays: 1850, 1864, 1985 ]; assay type: functional
[13] = target: T1, Heat shock factor protein 1 (Mus musculus, UniProt P38532); assay: enhancement of HSF1-driven luciferase signal – cell-based, NIH3T3, luminescence, dose retest, confirmation (AID 435004); assay type: functional;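 further: stress induced by proteasome inhibitor MG132 added 30 min after compound; luciferase reporter driven by HSF1 response element in NIH3T3 cells; actives raise luminescence as potentiators of the MG132 stress response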
T1 sequence (P38532 whole entry): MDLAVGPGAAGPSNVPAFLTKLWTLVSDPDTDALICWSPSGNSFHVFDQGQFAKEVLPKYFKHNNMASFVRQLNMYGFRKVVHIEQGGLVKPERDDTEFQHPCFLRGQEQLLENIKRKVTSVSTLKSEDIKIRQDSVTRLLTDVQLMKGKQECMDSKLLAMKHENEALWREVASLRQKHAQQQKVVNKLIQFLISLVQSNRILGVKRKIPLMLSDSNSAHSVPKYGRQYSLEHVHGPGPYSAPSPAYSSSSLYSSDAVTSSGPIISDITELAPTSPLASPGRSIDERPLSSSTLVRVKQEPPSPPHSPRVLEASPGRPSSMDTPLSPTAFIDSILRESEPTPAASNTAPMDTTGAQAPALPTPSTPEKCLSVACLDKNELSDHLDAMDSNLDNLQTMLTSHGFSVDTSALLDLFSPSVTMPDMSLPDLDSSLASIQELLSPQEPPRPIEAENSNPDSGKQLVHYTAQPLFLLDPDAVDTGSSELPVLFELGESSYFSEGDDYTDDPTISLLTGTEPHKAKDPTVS

[14] = tested on: Streptococcus; assay: GAS UMAA2166 growth inhibition – luminescence, BacTiterGlo, counter-screen for streptokinase expression inhibitor project, dose response (AID 1915); assay type: functional, organism-based;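 further: potency for reduction of bacterial viability or growth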
[15] = target: T2, Streptokinase A (Streptococcus pyogenes serotype M1, UniProt P10520); assay: viability-normalized secreted streptokinase activity reduction – plasminogen activation absorbance, OD405, dose response (AID 1914); assay type: functional, Streptococcus pyogenes M1 GAS;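 further: secreted streptokinase activity via plasminogen activation per viability signal from cell pellet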
T2 sequence (P10520 whole entry): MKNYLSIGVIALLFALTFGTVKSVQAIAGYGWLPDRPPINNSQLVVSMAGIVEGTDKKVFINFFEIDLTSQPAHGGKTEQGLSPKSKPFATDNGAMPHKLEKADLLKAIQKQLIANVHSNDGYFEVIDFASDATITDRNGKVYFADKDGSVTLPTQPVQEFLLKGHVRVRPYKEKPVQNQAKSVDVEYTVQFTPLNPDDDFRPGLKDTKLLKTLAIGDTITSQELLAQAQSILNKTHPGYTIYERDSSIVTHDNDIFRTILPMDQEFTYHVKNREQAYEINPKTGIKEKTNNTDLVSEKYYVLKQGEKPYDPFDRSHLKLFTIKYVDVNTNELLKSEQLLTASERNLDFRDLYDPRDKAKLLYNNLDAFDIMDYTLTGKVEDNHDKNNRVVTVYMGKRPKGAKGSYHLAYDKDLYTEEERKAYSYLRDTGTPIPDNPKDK

[16] = tested on: Streptococcus sp. 'group A'; assay: Streptococcus pyogenes SK(-)GAS viability under kanamycin – luminescence, BacTiterGlo, confirmation, counter-screen for streptokinase expression inhibitor project, dose response (AID 1900); assay type: functional, organism-based
[17] = tested on: H9c2; assay: cells; assay type: functional, cell-based; settings: Rattus norvegicus, H9c2, Myocardium;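 further: confirmatory concentration-response retest of ultra-high-throughput screening hits for modulation of myocardial damage; cell death induced by hydrogen peroxide oxidative stress; compound pretreatment for 60 min then peroxide exposure for 2 h; potency is for protecting the cells against peroxide damage rather than for killing them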
[18] = intracellular Trypanosoma cruzi inhibitors in host cells – cell-based, plate reader, cherry-pick samples, set 3, dose response (AID 651818); assay type: functional;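 further: compounds incubated with infected cells for about four days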
[19] = target: T3, Histone-lysine N-methyltransferase NSD2 (Homo sapiens, UniProt O96028); assay type: biochemical
T3 sequence (O96028 whole entry): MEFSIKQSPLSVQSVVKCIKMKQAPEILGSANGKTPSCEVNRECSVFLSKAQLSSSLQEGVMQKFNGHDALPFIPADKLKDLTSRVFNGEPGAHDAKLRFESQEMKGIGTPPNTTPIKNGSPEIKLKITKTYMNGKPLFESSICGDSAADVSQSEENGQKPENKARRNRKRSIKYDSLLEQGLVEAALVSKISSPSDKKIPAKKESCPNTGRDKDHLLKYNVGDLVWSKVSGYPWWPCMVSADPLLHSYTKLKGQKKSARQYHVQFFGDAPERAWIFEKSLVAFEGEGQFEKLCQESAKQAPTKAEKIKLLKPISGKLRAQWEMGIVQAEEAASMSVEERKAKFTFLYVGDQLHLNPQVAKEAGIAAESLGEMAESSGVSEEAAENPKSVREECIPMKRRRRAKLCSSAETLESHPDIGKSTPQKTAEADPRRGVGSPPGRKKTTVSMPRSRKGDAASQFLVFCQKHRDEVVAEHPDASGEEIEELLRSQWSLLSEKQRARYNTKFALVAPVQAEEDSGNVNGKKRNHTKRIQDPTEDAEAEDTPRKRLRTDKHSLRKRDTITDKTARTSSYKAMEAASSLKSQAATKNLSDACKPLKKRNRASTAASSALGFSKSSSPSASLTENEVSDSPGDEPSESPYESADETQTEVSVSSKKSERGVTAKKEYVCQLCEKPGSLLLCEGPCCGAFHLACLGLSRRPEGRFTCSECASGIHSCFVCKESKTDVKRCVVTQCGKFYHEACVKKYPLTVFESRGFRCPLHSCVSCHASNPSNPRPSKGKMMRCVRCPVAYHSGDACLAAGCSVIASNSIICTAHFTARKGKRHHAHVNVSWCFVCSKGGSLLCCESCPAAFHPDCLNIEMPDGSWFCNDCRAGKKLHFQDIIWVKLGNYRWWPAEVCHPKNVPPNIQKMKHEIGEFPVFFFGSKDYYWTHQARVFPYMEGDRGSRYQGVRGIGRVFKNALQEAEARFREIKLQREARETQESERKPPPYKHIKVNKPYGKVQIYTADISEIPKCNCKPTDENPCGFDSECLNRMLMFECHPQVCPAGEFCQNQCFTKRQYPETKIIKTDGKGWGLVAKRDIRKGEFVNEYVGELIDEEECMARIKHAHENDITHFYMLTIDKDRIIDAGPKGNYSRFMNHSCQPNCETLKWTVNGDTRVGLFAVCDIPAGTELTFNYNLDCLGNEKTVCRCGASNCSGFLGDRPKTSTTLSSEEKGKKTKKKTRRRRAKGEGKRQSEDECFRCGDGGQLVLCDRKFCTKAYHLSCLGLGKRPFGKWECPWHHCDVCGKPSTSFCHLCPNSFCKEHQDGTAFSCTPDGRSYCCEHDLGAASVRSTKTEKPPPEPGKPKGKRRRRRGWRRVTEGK

[20] = target: T4, Sentrin-specific protease 8 (Homo sapiens, UniProt Q96LD8); assay type: functional
T4 sequence (Q96LD8 whole entry): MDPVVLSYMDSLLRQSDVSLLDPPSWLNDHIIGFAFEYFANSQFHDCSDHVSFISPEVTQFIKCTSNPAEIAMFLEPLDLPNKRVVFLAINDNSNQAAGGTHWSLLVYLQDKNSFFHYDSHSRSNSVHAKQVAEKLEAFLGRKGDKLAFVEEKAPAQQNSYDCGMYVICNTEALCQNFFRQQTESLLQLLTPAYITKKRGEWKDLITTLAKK

[21] = target: T4, Sentrin-specific protease 8; assay type: functional; remark: listed apart in the source

Cc1nnc(SCc2ccccc2)n1N
EC50 [1]: > 79.4 µM (not active) | EC50 [2]: > 79.4 µM (not active) | EC50 [3]: > 79.4 µM (not active)

CCN(CC)C(=O)CSc1nc(O)c(Cc2ccccc2)c(=O)n1-c1ccccc1
IC50 [4]: 14.6 µM (inactive) | IC50 [5]: > 138 µM (inactive)

Cc1cccc(N(CC(=O)N2CCN(c3ccc(F)cc3)CC2)S(C)(=O)=O)c1C
EC50 [1]: > 79.4 µM (not active) | EC50 [2]: > 79.4 µM (not active) | EC50 [3]: > 79.4 µM (not active)

CC(=O)Nc1ccc(-c2ccnc(-c3ccc(NC(C)=O)cc3)n2)cc1
IC50 [4]: 26.7 µM (inactive) | IC50 [5]: > 138 µM (inactive)

O=C(O)CSc1ncnc2sc3c(c12)CCCC3
IC50 [4]: 8.49 µM (active) | IC50 [5]: > 138 µM (inactive)

Cc1ccc(OCC(=O)N2CCN(c3nnc(-c4ccccc4)c4ccccc34)CC2)cc1
IC50 [6]: > 80 µM (inactive) | EC50 [7]: 3.8 µM (active) | EC50 [8]: 1.92 µM (active) | EC50 [9]: > 60 µM (not active)

Oc1nc(Nc2ccccc2)nc(N2CCCCC2)n1
IC50 [10]: > 29.9 µM (inactive) | EC50 [11]: > 29.9 µM (inactive)

COc1ccc(NC(=S)N2CCc3ccccc3C2)cc1OC
IC50 [10]: > 29.9 µM (inactive) | EC50 [11]: > 29.9 µM (inactive)

CC1C(Br)C(=O)NC(=O)N1Cc1ccccc1 (configuration not stated)
EC50 [1]: > 79.4 µM (not active) | EC50 [2]: > 79.4 µM (not active) | EC50 [3]: > 79.4 µM (not active)

CCS(=O)(=O)N1CCN(C2CCC(c3ccccc3)CC2)CC1 (configuration not stated)
EC50 [1]: > 79.4 µM (not active) | EC50 [12]: > 50 µM (active) | EC50 [2]: > 79.4 µM (not active) | EC50 [3]: > 79.4 µM (not active)

Cc1cc(OCc2ccccc2)ccc1C(=O)C1=C(O)C(=O)N(Cc2cccnc2)C1c1ccncc1 (configuration not stated)
IC50 [4]: 12.5 µM (inactive) | IC50 [5]: > 138 µM (inactive)

CN1CCN(C(=O)/C=C\c2ccc(Cl)cc2)CC1
IC50 [6]: > 80 µM (inactive)

COc1cccc(NC(=S)NC(=O)c2c(Cl)c(C)nn2C)c1
EC50 [1]: > 79.4 µM (not active) | EC50 [2]: > 79.4 µM (not active) | EC50 [3]: > 79.4 µM (not active) | EC50 [13]: 63.7 µM (active)

CC(=O)N1CCN(c2ccc(NC(=O)/C=C/c3ccccc3)cc2)CC1
EC50 [1]: > 79.4 µM (not active) | EC50 [2]: > 79.4 µM (not active) | EC50 [3]: > 79.4 µM (not active)

CSc1cc(-c2ccc(Cl)cc2)n(Cc2ccccc2)c(=O)c1C#N
EC50 [1]: 41.4 µM (not active) | EC50 [2]: 80.7 µM (not active) | EC50 [3]: 44.7 µM (not active)

O=C(Nc1ccc(Oc2ccccc2)nc1)C1CCCCN1Cc1cccc(O)c1 (configuration not stated)
IC50 [6]: > 80 µM (inactive)

COc1ccccc1N1CCN(C(=O)/C=C/c2ccc(C)cc2)CC1
IC50 [6]: > 80 µM (inactive) | EC50 [14]: > 150 µM (not active) | EC50 [15]: 107 µM (active) | EC50 [16]: > 150 µM (not active)

CCc1cc2cccc(C)c2nc1SCC(=O)N1CCN(C(=O)c2ccco2)CC1
IC50 [4]: 10.7 µM (inactive) | IC50 [5]: 54.9 µM (inactive) | IC50 [17]: > 79 µM (inactive)

O=C1CCN(Cc2ccccc2)C=C1c1ccc2ccccc2c1
IC50 [6]: > 80 µM (inactive)

Cc1ccc(C(=O)NNC(=O)CSc2nnc(-c3ccccc3)n2Cc2ccccc2)cc1
IC50 [6]: > 80 µM (inactive)

O=C(N/N=C/c1cc(Br)cc(Br)c1O)c1ccccc1O
AC50 [18]: 1.85 µM (active)

C[C@@H]1CCCCO[C@H](CN(C)S(=O)(=O)c2ccc(Cl)cc2)[C@@H](C)CN([C@H](C)CO)C(=O)c2cc(NC(=O)Nc3ccc(C(F)(F)F)cc3)ccc2O1
AC50 [18]: 3 µM (active)

Cc1ccc(S(=O)(=O)Nc2ccc3c(c2)CC(=O)N([C@@H](C)CO)C[C@@H](C)[C@@H](CN(C)S(=O)(=O)c2ccc(C)cc2)O3)cc1
AC50 [18]: 6.15 µM (active)

C[C@H](CO)N1C[C@H](C)[C@@H](CN(C)Cc2ccc(C(=O)Nc3ccccc3N)cc2)Oc2c(NC(=O)Nc3ccccc3)cccc2C1=O
AC50 [18]: 1.61 µM (active)

C[C@H]1CN([C@@H](C)CO)C(=O)Cc2cc(NC(=O)CCC(F)(F)F)ccc2O[C@H]1CN(C)Cc1ccc(C(=O)Nc2ccccc2N)cc1
AC50 [18]: 5.91 µM (active)

C[C@@H]1CN([C@@H](C)CO)C(=O)c2cccc(NC(=O)Nc3ccc(F)cc3)c2O[C@H]1CN(C)Cc1ccc(C(=O)Nc2ccccc2N)cc1
AC50 [18]: 0.46 µM (active)

C[C@H]1CN([C@@H](C)CO)C(=O)c2cccc(NC(=O)Nc3ccc(F)cc3)c2O[C@H]1CN(C)Cc1ccc(C(=O)Nc2ccccc2N)cc1
AC50 [18]: 2.74 µM (active)

C[C@H]1COc2c3ccc(I)cc3nn21
IC50 [4]: 3.61 µM (active) | IC50 [5]: > 138 µM (inactive)

COc1cc(OC)c([N+](=O)[O-])cc1/C=N/NC(=O)c1ccncc1
AC50 [19]: > 20 µM (inactive) | IC50 [20]: 9.81 µM (active) | IC50 [21]: 12.3 µM (active)
